Measured values reported in patent US20230285402A1, “Compositions and Methods of Modulating Short-Chain Dehydrogenase Activity” (BOARD OF REGENTS OF THE UNIVERSITY OF TEXAS SYSTEM, priority 2013, published 2023).
pIC50: −log10 of the molar value. Where two headings read alike, the source gives them in different places.

Tests used:
A549 cells [1] = assay: PGE2 in medium of IL1-beta stimulated A549 cells; assay type: cell-based; settings: for induction of PGE2 compared with SW033291: 4 nM to 2500 nM; for rank of PGE2 level in medium: 100 nM drug
recombinant 15-PGDH [2] = molecular target: T1, recombinant 15-PGDH (Homo sapiens (Human), UniProt P15428); assay: Inhibition of enzymatic activity of recombinant 15-PGDH in vitro (NADH generation); assay type: biochemical; settings: for IC50: read-out: Enzyme Inhibitor IC50 (nM) at 5 nM 15-PGDH, 5 nM recombinant human 15-PGDH; for pIC50: read-out: IC50
[3] = system: PGE2 in colon, bone marrow, liver, lung; assay: PGE2 in mouse tissues after IP injection; assay type: in vivo; settings: after IP injection
Description: Shown is measurement by Elisa of PGE2 (ng PGE2/mg of tissue protein) from 4 mouse tissues: lung, liver, colon and bone marrow. […] Tissues were harvested for PGE2 assay at either 2 hour (2 h) or 3 hour (3 h) time points following drug injection.

[4] = system: 15-PGDH-luciferase fusion reporter in V9m, LS174T and V503 cells; assay: 15-PGDH-luciferase fusion reporter induction in colon cancer cell lines; assay type: cell-based; settings: for luciferase activity, in words: V9m, LS174T, V503; for Concentration for Full Cell Line Reporter Induction: maximal induction of reporter
15-PGDH mRNA = 15-PGDH mRNA by real-time PCR in colon cancer cell lines; assay type: cell-based; settings: treated colon cancer cell lines
Source text: In these studies parental cell lines (not containing the 15-PGDH-luciferase reporter) are employed.

mice = assay: Homing of CFSE labeled donor bone marrow cells in lethally irradiated mice; assay type: in vivo, mouse
Description: Drugs are administered following radiation, following the transplant, and again at 8 hours after the transplant.

recombinant 15-PGDH [5] = molecular target: T1, recombinant 15-PGDH; assay: Melting temperature shift of recombinant 15-PGDH (SYPRO Orange); assay type: binding; settings: for melting temperature: 20 uM compound
[6] = system: cell numbers in a cell culture assay; assay: Toxicity in cell culture assay (decrease of cell numbers); assay type: cell-based; settings: concentration needed to decrease cell numbers
Description: Time to inhibition refers to the time needed to inhibit the generation of NADH by 15-PGDH from the moment with drug is added into the reaction mix. Delta Tm refers to the shift in melting temperature of recombinant 15-PGDH in the presence of drug (with cofactor NADH also present). Concentration of Full Cell Line Reporter Induction refers to the concentration of drug that needs to be added to reporter cell line to achieve maximal induction of the 15-PGDH-luciferase gene fusion reporter cassette, as measured by luciferase assays. Hepatocyte stability refers to the half-life of compound in the presence of hepatocytes in culture. Toxicity refers to the concentration of compound needed to decrease cell numbers in a cell culture assay.

A549 cells [7] = assay: Cellular toxicity by CellTiter-Glo; assay type: cell-based; settings: concentrations of up to 10 μM; 24 hours
Description: FIGS. 38(A-C) show assays of cellular toxicity on A549 cells at 24 hours of 15-PGDH inhibitors as assayed by CellTiter-Glo measurement.

bone marrow = assay: Hematopoietic colonies from wild-type mouse bone marrow treated ex vivo; assay type: cell-based; settings: 1 uM, ex vivo on ice 2 hours
Source text: Treated marrow is again then plated into methylcellulose for counting of hematopoietic colonies.

T1 sequence (P15428 whole entry): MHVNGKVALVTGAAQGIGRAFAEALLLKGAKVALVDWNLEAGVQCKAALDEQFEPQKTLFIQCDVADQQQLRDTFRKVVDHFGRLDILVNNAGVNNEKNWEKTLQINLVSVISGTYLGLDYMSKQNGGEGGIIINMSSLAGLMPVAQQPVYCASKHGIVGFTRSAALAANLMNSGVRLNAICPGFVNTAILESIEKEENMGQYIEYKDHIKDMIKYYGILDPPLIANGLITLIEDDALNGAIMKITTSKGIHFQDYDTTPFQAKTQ

`CCCC[S+]([O-])c1sc2nc(-c3nccs3)cc(-c3nccn3C)c2c1N` (stereo not shown) [SW209125, 2-(butylsulfinyl)-4-(1-methyl-1H-imidazol-2-yl)-6-(thiazol-2-yl)thieno[2,3-b]pyridin-3-amine] was tested, and the “induction of PGE2 compared with SW033291” value (A549 cells [1]) was “increased activity relative to SW033291”.
Work on `CCCCS(=O)(=O)c1cc2ccc(-c3ccccc3)nc2s1` [SW208434] yielded an IC50 (recombinant 15-PGDH [2]) greater than 2500 nM.
`CCCC[S+]([O-])CSc1nc(-c2nccs2)cc(-c2nccn2C)c1C#N` (stereo not shown) [SW209427] showed an IC50 (recombinant 15-PGDH [2]) of 1480 nM.
In the case of `CC(=O)OCCCS(=O)(=O)c1sc2nc(-c3cccs3)cc(-c3ccccc3)c2c1N` [SW209272, 3-((3-amino-4-phenyl-6-(thiophen-2-yl)thieno[2,3-b]pyridin-2-yl)sulfonyl)propyl acetate], the IC50 (recombinant 15-PGDH [2]) was 530 nM.
`Nc1c([S+]([O-])CCCCCl)sc2nc(-c3cccs3)cc(-c3ccccc3)c12` (stereo not shown) [SW209329, 2-((4-chlorobutyl)sulfinyl)-4-phenyl-6-(thiophen-2-yl)thieno[2,3-b]pyridin-3-amine] showed an IC50 (recombinant 15-PGDH [2]) of 4.36 nM.
For (−) SW209415, the pIC50 (recombinant 15-PGDH [2]; FIG. 135) was 6.79.
(+) SW209415 was tested, and the “time of peak PGE2” value [3] was 3 h.
`CC(=O)OCCCC[S+]([O-])c1sc2nc(-c3cccs3)cc(-c3ccccc3)c2c1N` (stereo not shown) [SW209129, 4-((3-amino-4-phenyl-6-(thiophen-2-yl)thieno[2,3-b]pyridin-2-yl)sulfinyl)butyl acetate] gave an IC50 (recombinant 15-PGDH [2]) of 41.5 nM.
With `O=C(c1ccc2nc(-c3ccccc3)c(-c3ccccc3)nc2c1)N1CCCCC1` [SW145753] the “luciferase activity, in words” value [4] was “increase luciferase activity”, the “15-PGDH mRNA levels” value (15-PGDH mRNA) was “do not in general alter 15-PGDH mRNA levels” and the “15-PGDH activity in cells as reflected in PGE2 levels” value (A549 cells [1]; IL1-beta 23 hours, compound for last 5 hours) was “clear inhibition of 15-PGDH activity”.
`COc1ccc2c(c1)c(CC(=O)O)c(C)n2C(=O)c1ccc(Cl)cc1` [indomethacin, reference compound] was tested, and the “effect of co-treatment on the homing effect of SW033291” value (mice; with SW033291 10 mg/kg IP) was “near completely blocked”.
In the case of `CCCC[S+]([O-])c1sc2nc(-c3cccs3)nc(-c3ccccc3)c2c1N` (stereo not shown) [SW208067], the “rank of PGE2 level in medium” value (A549 cells [1]) was “highest levels of PGE2”.
`CCCC[S+]([O-])c1cc2ccc(-c3ccccc3)nc2s1` (stereo not shown) [SW208432, 2-(butylsulfinyl)-6-phenylthieno[2,3-b]pyridine] gave an IC50 (recombinant 15-PGDH [2]) of 3.53 nM.
Work on `CCCCS(=O)(=O)c1sc2nc(-c3nccs3)cc(-c3ccc(CO)cc3)c2c1N` [SW209333] yielded an IC50 (recombinant 15-PGDH [2]) greater than 2500 nM.
With `CCCCSc1cc2ccc(-c3ccccc3)nc2s1` [SW208430, 2-(butylthio)-6-phenylthieno[2,3-b]pyridine] the IC50 (recombinant 15-PGDH [2]) was greater than 2500 nM.
`CC(C)[S+]([O-])c1sc2nc(-c3nccs3)cc(-c3nccn3C)c2c1N` (stereo not shown) [SW209279, 2-(isopropylsulfinyl)-4-(1-methyl-1H-imidazol-2-yl)-6-(thiazol-2-yl)thieno[2,3-b]pyridin-3-amine] was tested, and the IC50 (recombinant 15-PGDH [2]) was 4.18 nM.
For `CC(=O)OCCC[S+]([O-])c1sc2nc(-c3cccs3)cc(-c3ccccc3)c2c1N` (stereo not shown) [SW209273, 3-((3-amino-4-phenyl-6-(thiophen-2-yl)thieno[2,3-b]pyridin-2-yl)sulfinyl)propyl acetate], the IC50 (recombinant 15-PGDH [2]) was 21.6 nM.
In the case of `CCCC[S+]([O-])c1sc2nc(-c3nccs3)ccc2c1N` (stereo not shown) [SW206992], the pIC50 (recombinant 15-PGDH [2]; Table 2 summary) was 8.85, the IC50 (recombinant 15-PGDH [2]) was 1.41 nM and the “Time to inhibition (10 nM)” value (recombinant 15-PGDH [2]; time to inhibit NADH generation after drug is added, 10 nM) was roughly 2 min. For the same molecule, the “Δ Tm (NADH)” value (recombinant 15-PGDH [5]) was 19 °C, the melting temperature (recombinant 15-PGDH [5]; 10 μM 15-PGDH, NAD(+) 100 μM, control 49) was 59 degrees and the melting temperature (recombinant 15-PGDH [5]; 10 uM 15-PGDH, NADH 100 uM, control 55) was 68.5 degrees. The “concentration needed to induce maximal reporter induction” value ([4]; exposure for 24 hours) was no less than 1000 nM, the “Concentration for Full Cell Line Reporter Induction” value [4] was greater than 1 µM and the “concentration at which maximal effect on PGE2 is attained” value (A549 cells [1]; IL-1β 16 h, then compound 8 h) was 2.5 µM. The “highest PGE2 level in medium” value (A549 cells [1]; IL-1β 16 h, then compound 8 h) was 2100 pg/mL, the Toxicity [6] was greater than 7.5 µM and the “effect on CellTitre-Glo levels” value (A549 cells [7]) was “No effect”.
With `COc1ccc(OC)c(N(CC(=O)Nc2cccnc2)S(=O)(=O)c2ccccc2)c1` [SW054384] the “direct binding to 15-PGDH, in words” value (recombinant 15-PGDH [5]; melting temperature shift, cofactor 10 μM and 100 μM) was “cannot be demonstrated to bind”, the “concentration of maximum activity” value [4] was 6.25 µM and the “luciferase activity, in words” value [4] was “increase luciferase activity”. The “15-PGDH mRNA levels” value (15-PGDH mRNA) was “do not in general alter 15-PGDH mRNA levels” and the PGE2 level (A549 cells [1]; compound from 24 hours before IL1-beta, maintained next 26 hours) was “lower level of PGE2”.
`CCCCC[C@H](O)/C=C/[C@H]1[C@H](O)CC(=O)[C@@H]1C/C=C\CCCC(=O)O` [PGE2] was tested, and the “increase in colonies compared with SW033291 treated marrow, in words” value (bone marrow) was “lesser increase”.
With `CCCC[S+]([O-])c1sc2nc(-c3cccs3)ccc2c1N` (stereo not shown) [SW206980] the “highest PGE2 level in medium” value (A549 cells [1]; IL-1β 16 h, then compound 8 h) was 2500 pg/mL, the Toxicity [6] was greater than 7.5 µM and the “effect on CellTitre-Glo levels” value (A549 cells [7]) was “No effect”.
`CCC[S+]([O-])c1sc2nc(-c3nccs3)cc(-c3nccn3C)c2c1N` (stereo not shown) [SW209280, 4-(1-methyl-1H-imidazol-2-yl)-2-(propylsulfinyl)-6-(thiazol-2-yl)thieno[2,3-b]pyridin-3-amine] was tested, and the IC50 (recombinant 15-PGDH [2]) was 3.73 nM.
For “4-((3-amino-4-phenyl-6-(thiophen-2-yl)thieno[2,3-b]pyridin-2-yl)sulfonyl)butyl acetate [SW209128]”, the IC50 (recombinant 15-PGDH [2]) was 4910 nM.
`CCCC[S+]([O-])c1sc2nc(-c3nccs3)cc(-c3cnc(C)n3C)c2c1N` (stereo not shown) [SW209415, 2-(butylsulfinyl)-4-(1,2-dimethyl-1H-imidazol-5-yl)-6-(thiazol-2-yl)thieno[2,3-b]pyridin-3-amine] was tested, and the “share of 15-PGDH inhibitory activity due to the (+) optical isomer” value (recombinant 15-PGDH [2]) was “at least 98%” and the “increase of homed donor cells in recipient bone marrow” value (mice; 10 mg/kg IP, FIG. 140) was “approximately 2.5 fold”.
Molecule `CCCCSc1sc2nc(-c3ccccc3)ccc2c1N` [SW208435, 2-(butylthio)-6-phenylthieno[2,3-b]pyridin-3-amine] has an IC50 (recombinant 15-PGDH [2]) greater than 2500 nM.
In the case of `CCCC[S+]([O-])c1sc2nc(-c3ccccc3)nc(-c3ccccc3)c2c1N` (stereo not shown) [SW208065], the “Δ Tm (NADH)” value (recombinant 15-PGDH [5]; shift in melting temperature, cofactor NADH present) was 13 °C and the “Concentration for Full Cell Line Reporter Induction” value [4] was roughly 0.1 µM.
Work on `CS(=O)(=O)c1sc2nc(-c3cccs3)cc(-c3ccccc3)c2c1N` [SW033290] yielded an IC50 (recombinant 15-PGDH [2]) of 525 nM.
With `CCCCSc1ncccc1N` [SW208068] the IC50 (recombinant 15-PGDH [2]) was greater than 7500 nM.
Work on `CCCC[S+]([O-])c1sc2nc(-c3nccs3)c(C(=O)OCC)c(-c3ccc(Br)cc3)c2c1N` (stereo not shown) [SW209123, Ethyl 3-amino-4-(4-bromophenyl)-2-(butylsulfinyl)-6-(thiazol-2-yl)thieno[2,3-b]pyridine-5-carboxylate] yielded an IC50 (recombinant 15-PGDH [2]) of 40.8 nM.
With `Nc1c([S+]([O-])CCCCO)sc2nc(-c3cccs3)cc(-c3ccccc3)c12` (stereo not shown) [SW209271, 4-((3-amino-4-phenyl-6-(thiophen-2-yl)thieno[2,3-b]pyridin-2-yl)sulfinyl)butan-1-ol] the IC50 (recombinant 15-PGDH [2]) was 34.2 nM.
`CCCC[S+]([O-])c1sc2nc(-c3cccs3)cc(-c3ccc(Br)cc3)c2c1N` (stereo not shown) [SW208199] gave an IC50 (recombinant 15-PGDH [2]) of 2.9 nM.
`CCCC[S+]([O-])c1sc2nc(-c3nccs3)cc(-c3nccs3)c2c1N` (stereo not shown) [SW209124, 2-(butylsulfinyl)-4,6-di(thiazol-2-yl)thieno[2,3-b]pyridin-3-amine] was tested, and the “induction of PGE2 compared with SW033291” value (A549 cells [1]) was “increased activity relative to SW033291”.
Molecule `CCCC[S+]([O-])c1ncccc1N` (stereo not shown) [SW208070] has an IC50 (recombinant 15-PGDH [2]) greater than 7500 nM.
`CCCC[S+]([O-])c1sc2nc(-c3cccs3)cc(C)c2c1N` (stereo not shown) [SW208488, 2-(butylsulfinyl)-4-methyl-6-(thiophen-2-yl)thieno[2,3-b]pyridin-3-amine] showed an IC50 (recombinant 15-PGDH [2]) of 1.43 nM.
For `CCCCC(C)(C)[C@H](O)/C=C/[C@H]1[C@H](O)CC(=O)[C@@H]1C/C=C\CCCC(=O)O` [dmPGE2, 16,16-dimethyl PGE2], the “increase in colonies compared with SW033291 treated marrow, in words” value (bone marrow) was “slightly greater increase”.
Work on `CCCCSc1nc2nc(-c3cccs3)ccc2[nH]1` [SW208494, 2-(butylthio)-5-(thiophen-2-yl)-3H-imidazo[4,5-b]pyridine] yielded an IC50 (recombinant 15-PGDH [2]) greater than 7500 nM.
For `CCCC[S+]([O-])c1sc2nc(-c3nccs3)cc(-c3ccccc3)c2c1N` (stereo not shown) [SW208066], the “rank of PGE2 level in medium” value (A549 cells [1]) was “highest levels of PGE2”.
`CC(C)[S+]([O-])c1sc2nc(-c3nccs3)cc(-c3cccnc3)c2c1N` (stereo not shown) [SW208778] showed an IC50 (recombinant 15-PGDH [2]) of 3.99 nM.
